# Test results taken from ChEMBL document CHEMBL1201862, “PubChem BioAssay data set” (2004).
#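 Cells were grown in 96-well plates and exposed to each compound for 48 hours at five concentrations; endpoints were interpolated linearly between bracketing concentrations, or set to the highest concentration if not reached. Here, GI50 denotes the concentration required for 50% inhibition of growth.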 Calls of active or inactive are those of the source. No stated cut-off is given here; in the data, active = GI50 up to about 1.1 µM and inactive = higher.
# Experiments:
# Assay in all cases: growth of human tumour cells (NCI), 48 h
# MDA-N = system: MDA-N
# KM-20L2 = system: KM-20L2
# M19-MEL = system: M19-MEL
# XF498 = system: XF498
# DLD-1 = system: DLD-1
# DMS-114 = system: DMS-114
# DMS-273 = system: DMS-273
# HOP-18 = system: HOP-18
compound,measurement,setting,value
COC(=O)c1sc(=S)sc1SCc1cccc(CSc2sc(=S)sc2C(=O)OC)c1,GI50,MDA-N,> 100 µM (inactive)
CSc1cc(Br)ccc1-n1c(C(=O)c2ccccc2)c(SC)n(-c2ccccc2)c1=O,GI50,MDA-N,18.5 µM (inactive)
COc1ccc(NC(=O)/C(Cc2cc(=O)oc3cc(O)ccc23)=N\NC(C)(C)C)c(OC)c1,GI50,KM-20L2,> 100 µM (inactive)
same,GI50,M19-MEL,> 100 µM (inactive)
same,GI50,XF498,> 100 µM (inactive)
COc1ccc(C2=Nc3c(nc(SC)[nH]c3=O)NC(c3ccccc3)C2)cc1 (stereo unspecified),GI50,MDA-N,16.9 µM (inactive)
COC(=O)C1(N2CCOCC2)CCC([C@@H](c2ccccc2)C(C)[N+](=O)[O-])C1 (stereo partly specified),GI50,MDA-N,> 100 µM (inactive)
O=C1CC(CC(O)C(O)CO)CC(=O)N1 (stereo unspecified),GI50,MDA-N,> 100 µM (inactive)
CC1=C(C(=O)Nc2c(C)cccc2C)C(c2ccccc2Cl)C(C(=O)Nc2c(C)cccc2C)=C(C)N1,GI50,DLD-1,> 100 µM (inactive)
same,GI50,DMS-114,> 100 µM (inactive)
same,GI50,DMS-273,> 100 µM (inactive)
same,GI50,KM-20L2,> 100 µM (inactive)
same,GI50,M19-MEL,> 100 µM (inactive)
same,GI50,XF498,> 100 µM (inactive)
COC(=O)CCCc1nc2ccccc2nc1/N=N/c1ccccc1,GI50,MDA-N,48.2 µM (inactive)
NC1=NN(c2ccccc2)C(=O)C1C(=O)C(=O)Nc1ccccc1 (stereo unspecified),GI50,DLD-1,> 100 µM (inactive)
same,GI50,DMS-114,> 100 µM (inactive)
same,GI50,DMS-273,> 100 µM (inactive)
same,GI50,HOP-18,> 100 µM (inactive)
same,GI50,KM-20L2,> 100 µM (inactive)
same,GI50,M19-MEL,> 100 µM (inactive)
same,GI50,XF498,> 100 µM (inactive)
COC(=O)/C(=C\c1cn(C(C)=O)c2ccccc12)P(=O)(OC)OC,GI50,MDA-N,15.1 µM (inactive)
c1ccc(P(CCP(c2ccccn2)c2ccccn2)c2ccccc2)cc1,GI50,MDA-N,4.57 µM (inactive)
N#CSC/C(Cl)=C/Cl.N#CSC/C(Cl)=C\Cl,GI50,MDA-N,> 100 µM (inactive)
S=C1NC(c2ccccc2)NC(c2ccccc2)S1 (stereo unspecified),GI50,MDA-N,> 100 µM (inactive)
COCCOC(=O)C(C)=[N+]=[N-],GI50,MDA-N,> 100 µM (inactive)
COc1ccc(/C=C2\CCC(C)C3C2=NN(c2ccccc2)C3c2ccc(OC)c(OC)c2)cc1OC (stereo unspecified),GI50,MDA-N,3.94 µM (inactive)
CC1NC(=O)c2c(-c3ccccc3)nn(-c3ccccc3)c2NC1=O (stereo unspecified),GI50,MDA-N,> 100 µM (inactive)
COC(=O)[C@@H]1CS(=O)(=O)C(C(C)C)N1C(C)=O (stereo partly specified),GI50,MDA-N,> 100 µM (inactive)
CCOC(=O)C(C(=O)OCC)=C1NC2(c3ccccc3Nc3ccccc32)C(C#N)S1 (stereo unspecified),GI50,MDA-N,14.4 µM (inactive)
C1=C\SS/C=C\SS/1,GI50,MDA-N,40.3 µM (inactive)
C[C@]12CC/C(=N\OCCN3CCCC3)C=C1CCC1C2CC[C@@]2(C)C1CC[C@]2(C)O (stereo partly specified),GI50,MDA-N,2.56 µM (inactive)
CN(CCNC(=O)c1nn(-c2ccccc2)c2c1Cc1ccccc1-2)CCNC(=O)c1nn(-c2ccccc2)c2c1Cc1ccccc1-2,GI50,MDA-N,1.73 µM (inactive)
Cc1ccc(NC(=S)N/N=C(/c2ccccc2)c2ccccn2)cc1,GI50,MDA-N,0.708 µM (active)
CCC(C(=O)O)c1ccc(OCc2ccccc2)cc1 (stereo unspecified),GI50,DLD-1,> 100 µM (inactive)
same,GI50,DMS-114,> 100 µM (inactive)
same,GI50,DMS-273,> 100 µM (inactive)
same,GI50,KM-20L2,> 100 µM (inactive)
same,GI50,XF498,> 100 µM (inactive)
O=C1c2c(F)c(F)c(F)c(F)c2SC2=Nc3cccc4cccc(c34)N12,GI50,MDA-N,5.05 µM (inactive)
